Data from patent US4617394A, “4-methyl-5-(unsubstituted and substituted phenoxy)-2,6-dimethoxy-8-(aminoalkylamino) quinolines” (priority 1985, dated 1986).
Several values for one entry are separate records, joined by “and”; a condition that tells them apart may be missing. Equal entries are not always repeated. Entries after “also recorded” stand apart in the source; their conditions may differ. Where two headings read alike, the source gives them in different places.

Assays:
[1] = tested on: Plasmodium berghei KBG 173; test: animal or person; format: in vivo, young ICR/HA Swiss mice; settings: for ΔMST: 5 mice; for Toxic death (T): number of 5 mice, 320 mg/kg
Description: Blood Schizonticidal Test (Mouse), University of Miami, Rane (suppressive)
This system is based on comparisons of responses to test compounds by Plasmodium berghei KBG 173 malaria in mice as expressed in mean survival times and the mean survival times of untreated controls. Thus, compounds noted as active produce increases in the survival times of the treated animals that are significant when compared with the survival times of untreated controls. Since an established disease is less sensitive to treatment than a disease in the early stages of development, treatment is withheld until the parasitemia is relatively high in order to insure a more reliable assay of activity and the selection of appropriate compounds for intensive preclinical studies.
Utilizing young ICR/HA Swiss mice and a standard inoculum of Plasmodium berghei KBG 173, it is possible to produce a uniform disease fatal to 100% of untreated animals within 6 to 8 days with a mean survival time of 6.2 days. Test animals weigh from 18 to 22 grams but weight variations in any given experimental or control group are confined to 2 to 3 grams. All animals in any given test are approximately of the same age. Animals on test are housed in metal-topped plastic cages, given a standard laboratory diet and water ad libitum.
Test animals receive an intraperitoneal injection of 0.5 ml of 1:100 dilution of heparinized heart's blood with a minimum of 90% parasitized cells (4×10^7 cells), drawn from donor mice infected one week earlier with Plasmodium berghei. The donor strain is maintained by weekly passages in separate groups of mice inoculated with a 0.5 ml of 1:500 dilution of heparinized heart's blood.
Test compounds are administered after dissolution or suspension in peanut oil. A single dose is given subcutaneously 72 hours after the mice are infected with Plasmodium berghei. At this time a 10-15 percent parasitemia has developed; the disease is well established but has not produced sufficient debility to alter the response of the host to toxic effects of the drug on test. Since treatment is withheld for three days to permit the infection to become well established and death occurs in untreated controls within 6 to 8 days, it is believed that this system presents a candidate compound with the maximum challenge. In order to check factors such as changes in the infectivity of Plasmodium berghei or in the susceptibility of the host or to detect technical errors, a group of infected animals treated with pyrimethamine at dose levels producing definite increases in survival time is included as a positive control in every experiment.
In each experiment test compounds are administered in graded doses. […] However, if an active drug is toxic for the host, its toxicity may become a limiting factor; continued increases in dose levels also increase the toxic effects and may result in the diminution of survival times. Deaths prior to the sixth day, when untreated controls begin to die, are regarded as non-parasitic and become the basis for the interpretation that the drug is toxic. Treated animals are kept under observation for 60 days. Survivors at the end of this period of time are considered as cured.
An increase of 100% in mean survival time is considered the minimum effective response for a candidate compound. In calculating mean survival time, toxic deaths and 60 day survivors are not included.

[2] = tested on: Plasmodium cynomolgi (strain B); test: Radical Curative Test in Rhesus Monkeys, SEATO Medical Research Laboratory; format: in vivo, Indian rhesus monkeys; settings: for Cures (C): Table 8, Seato; for Radical Curative Activity, Cures (C): Table 1, Seato Rhesus
Method: Radical Curative Test in Rhesus Monkeys, SEATO Medical Research Laboratory, Bangkok,
This test is designed to evaluate the tissue schizonticidal (radical curative) activity of test compounds. Well-conditioned Indian rhesus monkeys of either sex weighing 2-4 Kg are utilized. Plasmodium cynomolgi (strain B) sporozoites are prepared by grinding heavily infected Anopheles dirus salivary glands in 1:1 monkey serum-saline vehicle.
Monkeys are infected by I.V. injection of 10^6 freshly isolated P. cynomolgi sporozoites on day 0. A rapidly rising parasitemia develops after a 7 to 9 day prepatient period, and administration of the test drug is initiated when the rising parasite count exceeds 5000 per mm^3 (typically day 10-12). Test drugs are administered orally (by nasogastric intubation) once daily for 7 consecutive days in aqueous solution or, if insoluble, in suspension in 0.3% methylcellulose solution. Chloroquine diphosphate (3.1 mg of base/kg orally per day) is always administered concurrently with the test drug for 7 days to eliminate blood schizonts. Thus any tissue schizonticidal activity of the test drug will always be apparent even if it lacks blood schizonticidal activity.
A vehicle control monkey and a positive drug control (primaquine) monkey are included in each group of inoculated monkeys.
The effect of the test drug is determined by counting blood parasites. Parasite counts are made daily through day 20, and every two days thereafter. Initially a clearance of blood parasites is observed due to the blood schizonticidal action of chloroquine. […] If there is no relapse within 20 days of the initial clearance of parasitemia, the monkey is splenectomized and its parasitemia followed for an additional 30 days. If there is no relapse within this period, the experiment is terminated and the monkey is considered "cured". Alternately, in some experiments, negative parasitemia was followed for 100 days without prior splenectomy. It has been determined that the splenectomy and non-splenectomy methods yield virtually identical results.
Primaquine diphosphate cures over 90% of monkeys in this test system when administered at a dose of 1.3 mg/kg of salt per day for 7 days ([…]) in combination with chloroquine.

[3] = tested on: Chesson strain of P. vivax; test: Antimalarial activity against (trophozoite-induced) infections of the Chesson strain of P. vivax in the Aotus monkey; format: in vivo
[4] = tested on: P. berghei yoelli; test: Causal prophylactic activity against sporozoite induced P. berghei yoelli in the mouse; format: in vivo; settings: for Cures: subcutaneous
[5] = tested on: methemoglobin; format: in vivo, Dog; settings: for Peak % MHb / Slope of MHb Formation / Time of Peak MHb / MHb Disappearance Half-Time / MHb Production as AUC Corrected for Baseline: oral capsule, days 0-3, 3 mg/kg primaquine base per day or molar equivalent; for Peak % MHb / Slope of MHb Formation / Time of Peak MHb / MHb Production as AUC Corrected for Baseline: means differ significantly (p <.05); for MHb Disappearance Half-Time: no difference in the means; for MHb Production as AUC Corrected for Baseline: total methemoglobin production
Method: ^a Primaquine, Comparative Compound, or Compound X, were administered
orally by capsule for four days on days 0, 1, 2 and 3 at a dose of 3 mg/k
primaquine base per day or the molar equivalent.
^e Total methemoglobin production expressed as mg of MHb/ml of
blood/hr for a total of 2 days after administration of the first dose.
^f Area under the % methemoglobin versus time curve (AUC).

[6] = Acute toxicity in the rat by oral or intraperitoneal administration; settings: for LD50 (95% Confidence Limit): Rat
[7] = tested on: Plasmodium berghei KBG 173; settings: dose levels as low as; cited from earlier work
[8] = tested on: methemoglobin; settings: background; cited from earlier work
[9] = tested on: Plasmodium vivax and P. ovale malaria; settings: background; cited from earlier work
[10] = Table 2, P. cynomolgi, Rhesus, 0.10 mg/kg × 7 of salt
[11] = Table 2, P. cynomolgi, Rhesus, 0.316 mg/kg × 7 of salt
[12] = Table 2, P. cynomolgi, Rhesus, 1.0 mg/kg × 7 of salt

## COc1cc(C)c2c(Oc3cccc(C(F)(F)F)c3)c(OC)cc(NC(C)CCCN)c2n1.O=C(O)CCC(=O)O (stereo not shown) [Compound X, 8-(4-Amino-1-methylbutylamino)-2,6-dimethoxy-4-methyl-5-(3-trifluoromethylphenoxy)quinoline Succinate]
[1]; Table 4
  blood schizonticidal activity in the mouse, in words: blood schizonticidal activity in the mouse similar to the Comparative Compound
[1]; Table 4, 5 mg/kg
  ΔMST: 4 days
[1]; Table 4, 10 mg/kg
  ΔMST: 6 days
[1]; Table 4, 20 mg/kg
  ΔMST: 9 days
[2]; Table 2, P. cynomolgi, Rhesus, 0.0316 mg/kg × 7 of salt
  Cures: 0/2
[2]; [10]
  Cures: 2/4
[2]; [11]
  Cures: 4/4
[2]; [12]
  Cures: 2/2
[2]; Table 2, ratio of molar ED50, relative to primaquine
  Molar Primaquine Index by Regression Analysis: 12.8
[2]; P. cynomolgi, 0.0316 mg/kg (×7)
  Cures (C): 0/2
[2]; P. cynomolgi, 0.1 mg/kg (×7)
  Cures (C): 2/4
[2]; P. cynomolgi, 0.316 mg/kg (×7)
  Cures (C): 4/4
[2]; P. cynomolgi, 1.0 mg/kg (×7)
  Cures (C): 2/2
[2]; calculated by regression analysis, P. cynomolgi, Rhesus
  potency relative to primaquine diphosphate, molar basis: 12.8 times
[2]; radical curative, P. cynomolgi, Rhesus
  potency relative to Comparative Compound: approximately two
[3]; 1 mg/kg × 3 of base
  Cures: 2/2
[3]; 4 mg/kg × 3 of base
  Cures: 4/4
[3]; 16 mg/kg × 3 of base
  Cures: 3/3
[3]; 32 mg/kg × 3 of base
  Cures: 1/1
[3]; Table 3, Succinate
  blood schizonticidal activity in words: much greater blood schizonticidal activity than primaquine; also recorded: slightly better activity than the Comparative Compound
[4]; 2.5 mg/kg of salt
  Cures: 0/5
[4]; 10 mg/kg of salt
  Cures: 4/10
[4]; 40 mg/kg of salt
  Cures: 9/10
[4]; 160 mg/kg of salt
  Cures: 5/5
[4]; Table 5, Succinate
  prophylactic activity in words: showed prophylactic activity; also recorded: slightly less than that observed with the Comparative Compound
[5]; Table 7, 46% less
  total methemoglobin formation (area under the curve), less than Comparative Compound: 46%
[5]; Table 7, Succinate
  methemoglobin-forming property in words: significantly less toxic in terms of methemoglobinemia
[5]; Table 7, equimolar doses
  peak level of methemoglobin: 16%
[5]; Table 7, listed as Compound X succinate, Succinate
  methemoglobin-forming property in words: much less potent methemoglobin-forming compound than the Comparative Compound
[5]; footnote h, data of single dogs of the group, Succinate
  MHb Disappearance Half-Time, individual dogs: 5.08 days and 7.71 days and 23.30 days
[5]
  Peak % MHb: 16.0 ± 7.72%
  Slope of MHb Formation: 0.61 ± 0.10
  Time of Peak MHb: 6.83 ± 0.72 days
  MHb Disappearance Half-Time: 12.03 ± 9.85 days
  MHb Production as AUC Corrected for Baseline: 7,887 ± 3,609 mg of MHb/ml of blood/hr
[6]; female, I.P.
  LD50 (95% Confidence Limit): 71 (14-114) mg/kg (Salt)
[6]; female, oral
  LD50 (95% Confidence Limit): 416 (376-449) mg/kg (Salt)
[6]; male, I.P.
  LD50 (95% Confidence Limit): 102 (25-164) mg/kg (Salt)
[6]; male, oral
  LD50 (95% Confidence Limit): 429 (320-515) mg/kg (Salt)
[6]; Table 6, orally or intraperitoneally
  acute toxicity in words: less toxic than primaquine or the Comparative Compound

## OC(c1cc(C(F)(F)F)nc2c(C(F)(F)F)cccc12)C1CCCCN1 (stereo not shown) [mefloquine]
[7]
  curative dose, Rane Mouse Test: 20 mg/kg

## COc1cc(NC(C)CCCN)c2ncccc2c1 (stereo not shown) [Primaquine diphosphate, 8-(4-amino-1-methylbutylamino)-6-methoxyquinoline]
[1]; Plasmodium berghei, in Mus musculus, Table 4, read-out: active dose (active only at)
  minimal effective dose: 160 mg/kg
[1]; Rane mouse test
  suppressive activity in words: very weak activity at non-toxic dose levels
[1]; Table 1, P. berghei, Rane Mouse Test, 160 mg/kg
  ΔMST: 9 days
[1]; Table 1
  Toxic death (T): 2/5
[1]; Table 4, 160 mg/kg
  ΔMST: 9 days
[1]; Table 4, highest dose of 640 mg/kg
  curative activity in words: not curative even at the highest dose of 640 mg/kg
[1]; Table 4
  Toxic death (T): 2/5
[2]; 0.316 mg/kg
  radical curative activity in words: inactive
[2]; 1.0 mg/kg
  Cures: 50%
[2]; 1.3 mg/kg
  Cures: 100%
[2]; 1.3 mg/kg of salt per day for 7 days (1.0 mg/kg free base), in combination with chloroquine
  monkeys cured: over 90%
[2]; P. cynomolgi, 0.316 mg/kg (× 7)
  Radical Curative Activity, Cures (C): 0/2
[2]; P. cynomolgi, 1.0 mg/kg (× 7)
  Radical Curative Activity, Cures (C): 1/2
[2]; P. cynomolgi, 1.3 mg/kg (× 7)
  Radical Curative Activity, Cures (C): 6/6
[2]; [10]
  Cures: 0/2
[2]; [11]
  Cures: 0/2
[2]; [12]
  Cures: 1/2
[2]; Table 2, P. cynomolgi, Rhesus, 1.3 mg/kg × 7 of salt
  Cures: 6/6
[3]; 3.3 mg/kg × 3 of base
  Cures: 0/10
[3]; 13.3 mg/kg × 3 of base
  Cures: 3/8
[3]; 26 mg/kg × 3 of base
  Cures: 5/6
[5]
  Peak % MHb: 6.27 ± 3.86%
  Slope of MHb Formation: 0.93 ± 0.61
  Time of Peak MHb: 3.92 ± 0.34 days
  MHb Disappearance Half-Time: 7.89 ± 3.30 days
  MHb Production as AUC Corrected for Baseline: 2,138 ± 1,484 mg of MHb/ml of blood/hr
[8]
  methemoglobin formation in words: cause methemoglobinemia; also recorded: Methemoglobin formation is induced
[9]
  toxicity in man, in words: the toxicity of primaquine precludes administration of a single curative dose
[6]; female, oral
  LD50 (95% Confidence Limit): 244 (193-260) mg/kg (Salt)
